The subject of one assay is MX-1 cells. As to the kind of experiment: In vitro proliferation inhibition (CellTiter-Glo), MX-1. In kind it is cell-based. Particulars: Homo sapiens, MX1; MX-1, triple-negative breast cancer, BRCA1 mutation; 6-10 days culture. From the text:
[…]
Experimental data processing method: The luminescence signal value was used to calculate the inhibition rate. […]

Assay [1] relates to human breast cancer cell line MX-1 xenograft tumor. As to the kind of experiment: Subcutaneous xenograft tumor model of human breast cancer cell line MX-1. In kind it is in vivo, BALB/c nude mice. From the text: • 1. Experimental objective: To evaluate the in vivo efficacy of the compound in a subcutaneous xenograft tumor model of human breast cancer cell line MX-1 in nude mice. • 2. Reagent • RPMI-1640 medium (22400-089, Gibco), fetal bovine serum (FBS) (10099-141C, Gibco) • Phosphate buffer (PBS, 10010-023, Gibco), HPMC (D180HB4005, Shanghai Colorcon Coating Technology Ltd.) • 0.25% Trypsin-EDTA (25200-056, Gibco), Pen Strep (P/S) (15140-122, Gibco) • 3. Experimental operations and data processing • 3.1 Animals: BALB/c nude mice, 8-12 weeks old, female, purchased from the Laboratory Animal Business Department of Shanghai Institute of Planned Parenthood Research. • 3.2 Cell culture and cell suspension preparation • a. A vial of MX-1 cells was taken from a cell bank, the cells were thawed with RPMI-1640 medium (RPMI-1640+10% FBS), and the thawed cells were placed in a cell culture flask (with the cell type, date, the name of the culture operator, etc., being marked on the wall of the flask), which were placed in a CO2 incubator for culturing (wherein the temperature of the incubator was 37° C., and the CO2 concentration was 5%). • b. The cells were passaged every three days, and after passage, the cells were placed in the CO2 incubator to continue the culture. This process was repeated until the cell number met the requirements for in vivo efficacy. • c. The cultured cells were collected, counted using a full-automatic cell counter, and resuspended with PBS on the basis of the counting results to prepare a cell suspension (at a density of 3×10^7/mL), which was then placed in an ice box for later use. • 3.3 Cell inoculation • a. Before inoculation, the nude mice were marked with disposable universal ear tags for mice and rats. • b. At the time of inoculation, the cell suspension was mixed uniformly, 0.1-1 mL of the cell suspension was aspirated using a 1 mL syringe with air bubbles expelled, and the syringe was then placed on an ice bag for later use. • c. The nude mouse was secured with the left hand, the right dorsal area near the right shoulder (inoculation site) of the nude mouse was disinfected with a 75% alcohol cotton ball, and inoculation was initiated after 30 seconds. • d. The experimental nude mice were inoculated sequentially (0.1 mL of cell suspension per mouse). • 3.4 Tumor measurement, grouping and administration in tumor-bearing mice • a. Tumor was measured on days 10-18 after inoculation depending on the tumor growth, and the tumor size was calculated.
tumor volume (mm^3)=length (mm)×width (mm)×width (mm)/2 Tumor volume calculation: • b. According to the body weight of tumor-bearing mice and the size of the tumor, the mice were grouped by random grouping. • c. According to the grouping results, the test drug was started to be administered (administration method: oral administration; administration volume: 10 mL/kg; administration frequency: once/day; administration cycle: 21 days; vehicle: 0.5% HPMC). • d. Tumor measurement and weighing were performed twice a week after starting administration of test drugs. • e. The animals were euthanized at the end of the experiment. • f. Data processing was performed using software such as GraphPad Prism. The tumor inhibitory efficacy of the compound was evaluated by TGI (%) and ΔT/ΔC (%). ΔT/ΔC (%)=(T−T0)/(C−C0)×100, where T and C are the tumor volumes of the treatment group and the vehicle control group at the end of the experiment, respectively, and T0 and C0 are the tumor volumes of the treatment group and the vehicle control group at the beginning of the experiment, respectively. Tumor growth inhibition (TGI) (%)=100−ΔT/ΔC (%). Tumor growth inhibition (TGI) (%)=100−(T−T0)/T0×100 when tumor regression occurs • 4. Experimental conclusion

Setting [2] is: MX-1, 3 mg/kg oral once/day, Day 21.
Where [3] appears, read: MX-1, 100 mg/kg oral once/day, Day 21.

For orientation: IC50 means the concentration that inhibits the measured activity by half. The T/C is the ratio of treated to control. Usually TGI stands for how far tumour growth fell short of that in controls. A low value points to a weaker effect on the tumour. Regarding `CCc1cc2ncc(CN3CCN(c4ccc(C(=O)NC)nc4)CC3)cc2[nH]c1=O` [AZD5305], the IC50 with MX-1 cells was 4.1 ± 1.6 nM. Moreover, in assay [1] (MX-1, 3 mg/kg oral once/day, Day 0), the “Tumor volume (Mean ± SEM)” value came to 122 ± 17 mm^3. Besides, in assay [1] (setting [2]), the T/C is reported as 34.13%, the inhibition of tumour growth (TGI) is given as 70.43% and the “Tumor volume (Mean ± SEM)” value came to 642 ± 132 mm^3.

Consider `O=C(c1cc(Cc2n[nH]c(=O)c3ccccc23)ccc1F)N1CCN(C(=O)C2CC2)CC1` [Olaparib], for which the 50% inhibitory concentration (IC50) in the assay with MX-1 cells worked out at 246 ± 104 nM. In addition, in assay [1] (MX-1, 100 mg/kg oral once/day, Day 0), the “Tumor volume (Mean ± SEM)” value was 122 ± 14 mm^3. In addition, in assay [1] (setting [3]), the T/C was 88.08%, the TGI is given as 12.73% and the “Tumor volume (Mean ± SEM)” value worked out at 1656 ± 289 mm^3.

For the origin of these results see patent US20260256756A1, “USE OF PIPERIDINE ALKENE COMPOUND IN PREPARATION OF DRUG FOR TREATING CANCER” (JIANGSU HANSOH PHARMACEUTICAL GROUP CO., LTD., priority 2023, published 2026).
